From patent publication US9718813B2, “Imidazolin-5-one derivative useful as FASN inhibitors for the treatment of cancer” (Janssen Pharmaceutica, NV, priority 2013, dated 2017)

Target: hFASN enzyme (full length) (Homo sapiens (Human), UniProt P49327)
Experiment: Fatty Acid Synthase (FASN) Inhibition Scintillation Proximity Assay
Assay type: biochemical
Settings: 3H-acetyl-CoA and malonyl-CoA substrates, SPA, mean if tested more than once
Procedure: In this assay, inhibition of FASN activity is measured using ^3H-acetyl-CoA and malonyl-CoA as substrates. ^3H-Acetyl CoA is converted to ^3H-palmitate through a series of reactions by the FASN protein, which contains 7 functional domains and carries out 7 enzymatic reactions to ultimately produce ^3H-palmitate. The assay principle is based upon the fact that ^3H-acetyl-CoA is hydrophilic and the end product, ^3H-palmitate is hydrophobic.
10 μL assay buffer (100 mM KH2PO4 pH 7.5, 1 mM DTT) (20 μL in blanks) was added to a 384-well white Opti Plate plate (Perkin Elmer). 0.9 μL test compound (at concentrations of 30 μM, 10 μM, 3 μM, 1 μM, 0.30 μM, 0.10 μM, 0.03 μM and 0.01 μM)/DMSO and 10 μL hFASN enzyme (full length, 300 ng, purified in house) or 10 μL assay buffer was added to the wells. […] The reaction was stopped by adding 20 μL Streptavidin coupled imaging beads (25 mg/ml). After incubation for 30 minutes at room temperature in the dark, the 384 well plate was centrifuged at 1500 rpm for 3 minutes and was measured after at least 24 hrs by the LEADseeker™, measuring emission using a 610±20 nm pass filter.
Raw data generated by the instrument were normalized to % Controlmin values, which were calculated as: % Controlmin=100*(x−mLC)/(mHC−mLC)
where mLC and mHC were the means of the low control wells and high control wells on the plate, after manual exclusion of outliers. A plot of Controlmin versus test compound concentration was fitted to a 4-parameter logistic curve using a non-linear least squares regression method.

Sequence of hFASN enzyme (full length) (P49327 whole entry): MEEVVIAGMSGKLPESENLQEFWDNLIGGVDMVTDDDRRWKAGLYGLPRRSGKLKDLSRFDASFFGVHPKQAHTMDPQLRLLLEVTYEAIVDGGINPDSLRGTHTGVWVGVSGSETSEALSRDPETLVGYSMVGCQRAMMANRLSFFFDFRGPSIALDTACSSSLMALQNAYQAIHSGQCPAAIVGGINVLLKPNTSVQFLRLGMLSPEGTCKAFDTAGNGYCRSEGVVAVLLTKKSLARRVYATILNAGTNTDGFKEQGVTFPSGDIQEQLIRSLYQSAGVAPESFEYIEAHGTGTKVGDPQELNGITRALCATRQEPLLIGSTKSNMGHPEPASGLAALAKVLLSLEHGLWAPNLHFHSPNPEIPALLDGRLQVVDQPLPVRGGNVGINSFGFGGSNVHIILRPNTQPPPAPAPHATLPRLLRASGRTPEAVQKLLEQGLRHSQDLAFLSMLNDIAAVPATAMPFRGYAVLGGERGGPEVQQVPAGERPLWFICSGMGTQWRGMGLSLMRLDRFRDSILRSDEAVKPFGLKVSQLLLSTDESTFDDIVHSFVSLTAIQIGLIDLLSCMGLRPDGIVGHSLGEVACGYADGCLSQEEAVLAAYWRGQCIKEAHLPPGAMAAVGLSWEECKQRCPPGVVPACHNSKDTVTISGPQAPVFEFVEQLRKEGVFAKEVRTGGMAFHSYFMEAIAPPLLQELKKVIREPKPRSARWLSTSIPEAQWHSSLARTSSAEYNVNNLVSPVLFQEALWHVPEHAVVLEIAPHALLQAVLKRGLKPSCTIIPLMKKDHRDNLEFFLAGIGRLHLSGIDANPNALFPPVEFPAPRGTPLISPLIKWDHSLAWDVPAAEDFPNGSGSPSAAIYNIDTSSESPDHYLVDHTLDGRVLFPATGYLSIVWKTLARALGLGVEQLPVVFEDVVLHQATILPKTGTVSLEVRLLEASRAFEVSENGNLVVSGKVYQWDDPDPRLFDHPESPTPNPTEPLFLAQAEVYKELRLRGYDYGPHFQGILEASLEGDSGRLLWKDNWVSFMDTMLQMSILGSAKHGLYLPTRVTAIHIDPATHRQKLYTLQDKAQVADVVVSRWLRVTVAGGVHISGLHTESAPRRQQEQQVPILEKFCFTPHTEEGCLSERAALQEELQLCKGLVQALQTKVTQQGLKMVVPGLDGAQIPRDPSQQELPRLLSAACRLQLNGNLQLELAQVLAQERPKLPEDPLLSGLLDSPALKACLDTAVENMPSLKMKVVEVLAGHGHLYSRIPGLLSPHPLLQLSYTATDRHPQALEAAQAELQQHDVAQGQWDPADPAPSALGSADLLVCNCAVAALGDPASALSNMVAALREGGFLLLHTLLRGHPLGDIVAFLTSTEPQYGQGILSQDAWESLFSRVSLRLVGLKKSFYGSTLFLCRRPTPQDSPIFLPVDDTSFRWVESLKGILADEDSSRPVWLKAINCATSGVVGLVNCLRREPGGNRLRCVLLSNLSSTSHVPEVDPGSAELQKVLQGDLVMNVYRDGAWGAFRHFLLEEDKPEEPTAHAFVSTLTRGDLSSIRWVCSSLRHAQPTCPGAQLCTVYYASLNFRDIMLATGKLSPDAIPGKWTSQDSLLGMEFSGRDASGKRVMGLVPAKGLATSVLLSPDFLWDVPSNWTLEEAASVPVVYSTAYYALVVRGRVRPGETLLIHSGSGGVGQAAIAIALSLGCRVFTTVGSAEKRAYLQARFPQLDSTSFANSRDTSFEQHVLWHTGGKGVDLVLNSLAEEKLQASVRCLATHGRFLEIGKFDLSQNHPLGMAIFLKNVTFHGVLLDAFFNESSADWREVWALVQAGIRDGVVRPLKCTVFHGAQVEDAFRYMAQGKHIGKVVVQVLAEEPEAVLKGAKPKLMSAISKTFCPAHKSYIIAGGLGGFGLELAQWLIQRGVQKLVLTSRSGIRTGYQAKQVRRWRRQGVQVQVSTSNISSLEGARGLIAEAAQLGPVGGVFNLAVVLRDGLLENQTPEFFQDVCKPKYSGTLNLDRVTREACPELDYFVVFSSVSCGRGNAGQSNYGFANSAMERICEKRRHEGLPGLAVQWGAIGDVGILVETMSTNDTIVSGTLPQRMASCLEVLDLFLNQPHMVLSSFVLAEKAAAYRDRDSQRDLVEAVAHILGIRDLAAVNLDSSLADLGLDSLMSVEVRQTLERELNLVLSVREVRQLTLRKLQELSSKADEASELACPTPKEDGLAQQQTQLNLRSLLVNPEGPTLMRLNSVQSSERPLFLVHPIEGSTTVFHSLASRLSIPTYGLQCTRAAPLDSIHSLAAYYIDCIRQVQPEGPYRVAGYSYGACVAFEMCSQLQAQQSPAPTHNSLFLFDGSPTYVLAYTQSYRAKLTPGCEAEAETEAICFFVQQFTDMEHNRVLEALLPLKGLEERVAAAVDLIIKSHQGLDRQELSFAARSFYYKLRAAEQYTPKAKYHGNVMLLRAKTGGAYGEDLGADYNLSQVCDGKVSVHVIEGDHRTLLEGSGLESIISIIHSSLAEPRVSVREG

Human FASN pIC50 | IC50 (read-out: Human FASN pIC50 (converted)) [µM] | Compound
5.05 | – | CC1(C)N=C(c2ccc(-c3ccc4ncccc4c3)cc2F)N(CC2CN(C(=O)C3CC3)C2)C1=O [Compound 38, 1-((1-(cyclopropanecarbonyl)azetidin-3-yl)methyl)-2-(2-fluoro-4-(quinolin-6-yl)phenyl)-4,4-dimethyl-1H-imidazol-5(4H)-one]
5.26 | – | CC1(C)N=C(c2ccc(-c3n[nH]c4ccccc34)cc2)N(CC2CN(C(=O)C3CC3)C2)C1=O [Compound 99, 2-(4-(1H-indazol-3-yl)phenyl)-1-((1-(cyclopropanecarbonyl)azetidin-3-yl)methyl)-4,4-dimethyl-1H-imidazol-5(4H)-one]
~5.37 | – | CC1(C)N=C(c2ccc(-c3nc4ccccc4o3)cc2)N(CC2CN(C(=O)C3CC3)C2)C1=O [Compound 12, 2-(4-(benzo[d]oxazol-2-yl)phenyl)-1-((1-(cyclopropanecarbonyl)azetidin-3-yl)methyl)-4,4-dimethyl-1H-imidazol-5(4H)-one]
5.38 | – | CC1(C)N=C(c2ccc(-c3cnc4ccccc4c3)cc2)N(CC2CN(C(=O)C3CC3)C2)C1=O [Compound 19, 1-((1-(cyclopropanecarbonyl)azetidin-3-yl)methyl)-4,4-dimethyl-2-(4-(quinolin-3-yl)phenyl)-1H-imidazol-5(4H)-one]
7.52 | – | Cn1cc(-c2ccc(-c3ccc(C4=NC(C)(C)C(=O)N4C[C@@H]4CCN(C(=O)C5(O)CC5)C4)c(F)c3)cc2)cn1 [Compound 95, (R)-2-(3-fluoro-4′-(1-methyl-1H-pyrazol-4-yl)-[1,1′-biphenyl]-4-yl)-1-((1-(1-hydroxycyclopropanecarbonyl)pyrrolidin-3-yl)methyl)-4,4-dimethyl-1H-imidazol-5(4H)-one]
7.04 | – | Cc1cc(-c2ccc3c(c2)ncn3C)ccc1C1=NC(C)(C)C(=O)N1C[C@@H]1CCN(C(=O)C2(O)CC2)C1 [Compound 92, (R)-1-((1-(1-hydroxycyclopropanecarbonyl)pyrrolidin-3-yl)methyl)-4,4-dimethyl-2-(2-methyl-4-(1-methyl-1H-benzo[d]imidazol-5-yl)phenyl)-1H-imidazol-5(4H)-one]
7.07 | – | Cn1ncc2cc(-c3ccc(C4=NC(C)(C)C(=O)N4C[C@@H]4CCN(C(=O)C5(O)CC5)C4)c(F)c3)ccc21 [Compound 76, (R)-2-(2-fluoro-4-(1-methyl-1H-indazol-5-yl)phenyl)-1-((1-(1-hydroxycyclopropanecarbonyl)pyrrolidin-3-yl)methyl)-4,4-dimethyl-1H-imidazol-5(4H)-one]
~5.19 | – | CC1(C)N=C(c2ccc(-c3n[nH]c4ccccc34)cc2)N(C[C@@H]2CCN(C(=O)C3CC3)C2)C1=O [Compound 35, (R)-2-(4-(1H-indazol-3-yl)phenyl)-1-((1-(cyclopropanecarbonyl)pyrrolidin-3-yl)methyl)-4,4-dimethyl-1H-imidazol-5(4H)-one]
5.86 | – | CC1(C)N=C(c2ccc(-c3ccc4ncccc4c3)cc2F)N(C[C@@H]2CCN(C(=O)C3CC3)C2)C1=O [Compound 37, (R)-1-((1-(cyclopropanecarbonyl)pyrrolidin-3-yl)methyl)-2-(2-fluoro-4-(quinolin-6-yl)phenyl)-4,4-dimethyl-1H-imidazol-5(4H)-one]
7.22 | – | Cn1cnc2cc(-c3ccc(C4=NC(C)(C)C(=O)N4C[C@@H]4CCN(C(=O)C5(O)CC5)C4)c(F)c3)ccc21 [Compound 89, (R)-2-(2-fluoro-4-(1-methyl-1H-benzo[d]imidazol-5-yl)phenyl)-1-((1-(1-hydroxycyclopropanecarbonyl)pyrrolidin-3-yl)methyl)-4,4-dimethyl-1H-imidazol-5(4H)-one]
5.67 | – | CC1(C)N=C(c2ccc(-c3ccc4ncccc4c3)cc2)N(C[C@@H]2CCN(C(=O)C3CC3)C2)C1=O [Compound 64, (R)-1-((1-(cyclopropanecarbonyl)pyrrolidin-3-yl)methyl)-4,4-dimethyl-2-(4-(quinolin-6-yl)phenyl)-1H-imidazol-5(4H)-one]
7.10 | – | Cn1cnc2cc(-c3ccc(C4=NC(C)(C)C(=O)N4C[C@@H]4CCN(C(=O)C5(C)CC5)C4)c(F)c3)ccc21 [Compound 90, (R)-2-(2-fluoro-4-(1-methyl-1H-benzo[d]imidazol-5-yl)phenyl)-4,4-dimethyl-1-((1-(1-methylcyclopropanecarbonyl)pyrrolidin-3-yl)methyl)-1H-imidazol-5(4H)-one]
5.43 | – | CC1(C)N=C(c2ccc(-c3ccc4cncnc4c3)cc2)N(CC2CN(C(=O)C3CC3)C2)C1=O [Compound 36, 1-((1-(cyclopropanecarbonyl)azetidin-3-yl)methyl)-4,4-dimethyl-2-(4-(quinazolin-7-yl)phenyl)-1H-imidazol-5(4H)-one]
5.87 | – | CC1(C)N=C(c2ccc(-c3cccc4cnccc34)cc2F)N(CC2CN(C(=O)C3CC3)C2)C1=O [Compound 21, 1-((1-(cyclopropanecarbonyl)azetidin-3-yl)methyl)-2-(2-fluoro-4-(isoquinolin-5-yl)phenyl)-4,4-dimethyl-1H-imidazol-5(4H)-one]
6.37 | – | Cc1cc(-c2ccc3c(c2)ncn3C)ccc1C1=NC(C)(C)C(=O)N1CC1CN(C(=O)C2(O)CC2)C1 [Compound 91, 1-((1-(1-hydroxycyclopropanecarbonyl)azetidin-3-yl)methyl)-4,4-dimethyl-2-(2-methyl-4-(1-methyl-1H-benzo[d]imidazol-5-yl)phenyl)-1H-imidazol-5(4H)-one]
7.39 | – | Cc1cc(-c2ccc3cc(C#N)ccc3c2)ccc1C1=NC(C)(C)C(=O)N1CC1CN(C(=O)C2CC2)C1 [Compound 96, 6-(4-(1-((1-(cyclopropanecarbonyl)azetidin-3-yl)methyl)-4,4-dimethyl-5-oxo-4,5-dihydro-1H-imidazol-2-yl)-3-methylphenyl)-2-naphthonitrile]
6.49 | – | Cn1cnc2cc(-c3ccc(C4=NC(C)(C)C(=O)N4CC4CN(C(=O)C5(O)CC5)C4)c(F)c3)ccc21 [Compound 94, 2-(2-fluoro-4-(1-methyl-1H-benzo[d]imidazol-5-yl)phenyl)-1-((1-(1-hydroxycyclopropanecarbonyl)azetidin-3-yl)methyl)-4,4-dimethyl-1H-imidazol-5(4H)-one]
6.00 | – | CC1(C)N=C(c2ccc(-c3n[nH]c4ccccc34)cc2F)N(CC2CN(C(=O)C3CC3)C2)C1=O [Compound 58, 1-((1-(cyclopropanecarbonyl)azetidin-3-yl)methyl)-2-(2-fluoro-4-(1H-indazol-3-yl)phenyl)-4,4-dimethyl-1H-imidazol-5(4H)-one]
7.69 | – | CC1(C)N=C(c2ccc(-c3ccc4cc(F)ccc4c3)cc2F)N(C[C@@H]2CCN(C(=O)C3(O)CC3)C2)C1=O [Compound 88, (R)-2-(2-fluoro-4-(6-fluoronaphthalen-2-yl)phenyl)-1-((1-(1-hydroxycyclopropanecarbonyl)pyrrolidin-3-yl)methyl)-4,4-dimethyl-1H-imidazol-5(4H)-one]
~5.79 | – | CC1(C)N=C(c2ccc(-c3c[nH]c4ccccc34)cc2)N(CC2CN(C(=O)C3CC3)C2)C1=O [Compound 59, 2-(4-(1H-indol-3-yl)phenyl)-1-((1-(cyclopropanecarbonyl)azetidin-3-yl)methyl)-4,4-dimethyl-1H-imidazol-5(4H)-one]
7.26 | – | CC1(C(=O)N2CC[C@@H](CN3C(=O)C(C)(C)N=C3c3ccc(-c4ccc5cc(F)ccc5c4)cc3F)C2)CC1 [Compound 75, (R)-2-(2-fluoro-4-(6-fluoronaphthalen-2-yl)phenyl)-4,4-dimethyl-1-((1-(1-methylcyclopropanecarbonyl)pyrrolidin-3-yl)methyl)-1H-imidazol-5(4H)-one]
~5.25 | – | CC1(C)N=C(c2ccc(-c3cccc4ncccc34)cc2)N(CC2CN(C(=O)C3CC3)C2)C1=O [Compound 18, 1-((1-(cyclopropanecarbonyl)azetidin-3-yl)methyl)-4,4-dimethyl-2-(4-(quinolin-5-yl)phenyl)-1H-imidazol-5(4H)-one]
7.00 | – | Cn1cnc2cc(-c3ccc(C4=NC(C)(C)C(=O)N4CC4CN(C(=O)C5(C)CC5)C4)c(F)c3)ccc21 [Compound 93, 2-(2-fluoro-4-(1-methyl-1H-benzo[d]imidazol-5-yl)phenyl)-4,4-dimethyl-1-((1-(1-methylcyclopropanecarbonyl)azetidin-3-yl)methyl)-1H-imidazol-5(4H)-one]
– | > 10 | CC1(C)N=C(c2ccc(-c3ccc4ncccc4c3)cc2)N(CC2CN(C(=O)C3CC3)C2)C1=O [Compound 98, 1-((1-(cyclopropanecarbonyl)azetidin-3-yl)methyl)-4,4-dimethyl-2-(4-(quinolin-6-yl)phenyl)-1H-imidazol-5(4H)-one]
